Results reported in patent publication US20180042234A1, “FUNGICIDAL PYRAZOLES” (E I DU PONT DE NEMOURS AND COMPANY, priority 2015, published 2018).
Marks after values point to notes of the source that are not given here.

Key:
Format in all cases: in vivo
Septoria tritici = experiment: Test B: wheat leaf blotch, preventive spray on wheat seedlings, visual disease rating
Text: (§1) General protocol for preparing test suspensions for Tests A-E: the test compounds were first dissolved in acetone in an amount equal to 3% of the final volume and then suspended at the desired concentration (in ppm) in acetone and purified water (50/50 mix by volume) containing 250 ppm of the surfactant Trem® 014 (polyhydric alcohol esters). The resulting test suspensions were then used in Tests A-E. Spraying a 200 ppm test suspension to the point of run-off on the test plants was the equivalent of a rate of 800 g/ha.
(§2) The test suspension was sprayed to the point of run-off on wheat seedlings. The following day the seedlings were inoculated with a spore suspension of Septoria tritici (the causal agent of wheat leaf blotch) and incubated in a saturated atmosphere at 24° C. for 48 h, and then moved to a growth chamber at 20° C. for 19 days, after which time visual disease ratings were made.
(§3) Results for Tests A-E are given in Table A. In the Table, a rating of 100 indicates 100% disease control and a rating of 0 indicates no disease control (relative to the controls). A dash (-) indicates no test results. All results are for 200 ppm except where followed by an asterisk “*” which indicates a 250 ppm test suspension was used or a double asterisk “**” which indicates a 50 ppm test suspension was used.

[1] = system: Blumeria graminis f sp. tritici; experiment: Test D: wheat powdery mildew, preventive spray on wheat seedlings, visual disease rating
Text: as §1
The test suspension was sprayed to the point of run-off on wheat seedlings. The following day the seedlings were inoculated with a spore dust of Blumeria graminis f sp. tritici, (also known as Erysiphe graminis f sp. tritici, the causal agent of wheat powdery mildew) and incubated in a growth chamber at 20° C. for 8 days, after which time visual disease ratings were made.
as §3

[2] = system: Puccinia recondita f. sp. tritici; experiment: Test A: wheat leaf rust, preventive spray on wheat seedlings, visual disease rating
Text: as §1
as §2, with “Puccinia recondita f. sp.” for “Septoria”, “rust)” for “blotch)”, “20°” for “24°”, “24” for “48”, “7” for “19”
as §3

Botrytis cinerea = experiment: Test C: tomato Botrytis, preventive spray on tomato seedlings, visual disease rating
Text: as §1
as §2, with “tomato” for “wheat”, “Botrytis cinerea” for “Septoria tritici”, “tomato Botrytis)” for “wheat leaf blotch)”, “20°” for “24°”, “24°” for “20°”, “3” for “19”
as §3

[3] = 200 ppm test suspension, 100 = 100% disease control, 0 = no control

Structure (SMILES) | Test B disease control rating (Septoria tritici; 250 ppm test suspension (*)) | Test D disease control rating ([1]; 250 ppm test suspension (*)) | Test C disease control rating (Botrytis cinerea; 250 ppm test suspension (*)) | Test A disease control rating ([2]; 250 ppm test suspension (*)) | other results
CCCCC(CC)c1c(C)nn(C)c1Nc1ccc(F)cc1Cl (stereo not drawn) [Compound 3] | – | – | – | – | Test B disease control rating (Septoria tritici; 200 ppm test suspension): 0%; Test D disease control rating ([1]; 200 ppm test suspension): 0%; Test A disease control rating [2, 3]: 9%
Cn1nc(Br)c(C2OCCCO2)c1C(O)c1ccc(F)cc1Cl (stereo not drawn) [Compound 8] | 5* % | 72* % | 0* % | 0* % | –
Cn1nc(Br)c(C2OCCCO2)c1C(O)c1ccc(F)cc1Br (stereo not drawn) [Compound 9] | 0* % | 64* % | 0* % | 0* % | –
Cn1nc(Br)c(C2OCCCO2)c1C(O)c1ccc(F)cc1F (stereo not drawn) [Compound 10] | 0* % | 90* % | 0* % | 0* % | –
Cc1nn(C)c(C(O)c2ccc(F)cc2F)c1C1CCCCC1 (stereo not drawn) [Compound 12, 4-cyclohexyl-α-(2,4-difluorophenyl)-1,3-dimethyl-1H-pyrazole-5-methanol] | 100* % | 97* % | 61* % | 94* % | –
Cc1nn(C)c(Nc2ccc(F)cc2F)c1C1=CCC(C#N)CC1 (stereo not drawn) [Compound 18] | 79* % | 0* % | 73* % | 19* % | –
Cc1nn(C)c(Nc2ccc(F)cc2F)c1C1CCC(C)(C)CC1 [Compound 19] | 1* % | 96* % | 0* % | 0* % | –
Cc1nn(C)c(Nc2ccc(F)cc2Cl)c1C1=CCOCC1 [Compound 21] | 17* % | 13* % | 42* % | 0* % | –
Cc1nn(C)c(Nc2c(F)cc(Cl)cc2F)c1C1=CCCCC1C (stereo not drawn) [Compound 22] | – | – | – | – | Test D disease control rating ([1]; 200 ppm test suspension): 56%; Test C disease control rating (Botrytis cinerea; 200 ppm test suspension): 99%; Test A disease control rating [2, 3]: 68%
CCC(C)c1c(C)nn(C)c1Nc1c(F)cc(Cl)cc1F (stereo not drawn) [Compound 23, N-(4-chloro-2,6-difluorophenyl)-1,3-dimethyl-4-(1-methylpropyl)-1H-pyrazol-5-amine] | – | – | – | – | Test D disease control rating ([1]; 200 ppm test suspension): 95%; Test C disease control rating (Botrytis cinerea; 200 ppm test suspension): 98%; Test A disease control rating [2, 3]: 68%
CC=C(C)c1c(C)nn(C)c1Nc1c(F)cc(Cl)cc1F [Compound 24, N-(4-chloro-2,6-difluorophenyl)-1,3-dimethyl-4-(1-methyl-1-propen-1-yl)-1H-pyrazol-5-amine] | – | – | – | – | Test B disease control rating (Septoria tritici; 200 ppm test suspension): 96%; Test D disease control rating ([1]; 200 ppm test suspension): 100%; Test C disease control rating (Botrytis cinerea; 200 ppm test suspension): 85%; Test A disease control rating [2, 3]: 94%
CCC(OC)c1c(C)nn(C)c1Oc1c(F)cccc1F (stereo not drawn) [Compound 25] | 6* % | 0* % | 0* % | 99* % | –
CCON=C(C)c1c(C)nn(C)c1Nc1ccc(F)cc1Cl [Compound 26] | 33* % | 0* % | 0* % | 0* % | –
CCCON=C(C)c1c(C)nn(C)c1Nc1ccc(F)cc1Cl [Compound 27] | 17* % | 69* % | 0* % | 9* % | –
CC(=NOC(C)C)c1c(C)nn(C)c1Nc1ccc(F)cc1Cl [Compound 28] | 24* % | 0* % | 0* % | 32* % | –
CCON=C(C)c1c(C)nn(C)c1N(CC)c1ccc(F)cc1Cl [Compound 29] | 14* % | 0* % | 0* % | 55* % | –

Structure (SMILES) | Test B disease control rating (Septoria tritici; 250 ppm test suspension (*)) | Test D disease control rating ([1]; 250 ppm test suspension (*)) | Test C disease control rating (Botrytis cinerea; 250 ppm test suspension (*)) | Test A disease control rating ([2]; 250 ppm test suspension (*)) | other results
CON=C(C)c1c(C)nn(C)c1Nc1ccc(F)cc1Cl [Compound 30] | 14* % | 0* % | 0* % | 80* % | –
CC(=CC(C)C)c1c(C)nn(C)c1Nc1ccc(F)cc1Cl [Compound 31] | 6* % | 48* % | 0* % | 55* % | –
CC(=O)c1c(C)nn(C)c1Nc1ccc(F)cc1Cl [Compound 32] | – | 0* % | 56* % | 19* % | –
CON=C(C)c1c(C)nn(C)c1N(C)c1ccc(F)cc1Cl [Compound 33] | – | – | – | – | Test B disease control rating (Septoria tritici; 50 ppm test suspension (**)): 0** %; Test D disease control rating ([1]; 50 ppm test suspension (**)): 0** %; Test C disease control rating (Botrytis cinerea; 50 ppm test suspension (**)): 7** %; Test A disease control rating ([2]; 50 ppm test suspension (**)): 17** %
C=Cc1c(C)nn(C)c1Oc1ccc(F)cc1Cl [Compound 35] | 0* % | 26* % | 0* % | 8* % | –
Cc1nn(C)c(Oc2ccc(F)cc2Cl)c1C1OCCCO1 [Compound 37] | 5* % | 63* % | 0* % | 52* % | –
Cc1nn(C)c(Oc2ccc(F)cc2Cl)c1C1OCC(C)(C)CO1 [Compound 38] | 93* % | 94* % | 0* % | 52* % | –
C=C(C)c1c(C)nn(C)c1Oc1ccc(F)cc1Cl [Compound 39] | 0* % | 13* % | 0* % | 15* % | –
CC1=NOC(c2c(C)nn(C)c2Oc2ccc(F)cc2Cl)C1 (stereo not drawn) [Compound 40] | 36* % | 81* % | 33* % | 30* % | –
Cc1nn(C)c(Oc2ccc(F)cc2Cl)c1C(C)O (stereo not drawn) [Compound 41] | 0* % | 46* % | 0* % | 0* % | –
Cc1nn(C)c(Oc2ccc(F)cc2Cl)c1C=NO [Compound 42] | 0* % | 81* % | 7* % | 9* % | –
Cc1nn(C)c(Oc2ccc(F)cc2Cl)c1C1=NOC(C)(C)C1 [Compound 53] | 2* % | 90* % | 0* % | 0* % | –
Cc1nn(C)c(Oc2ccc(F)cc2Cl)c1C1=NOC(C#N)C1 (stereo not drawn) [Compound 55] | 0* % | 73* % | 0* % | 0* % | –
Cc1nn(C)c(Nc2ccc(F)cc2Cl)c1C1CCOCC1 [Compound 56] | 100* % | 99* % | 100* % | 55* % | –
Cc1nn(C)c(Nc2ccc(F)cc2)c1C1CCOCC1 [Compound 57] | 44* % | 89* % | 0* % | 0* % | –
